From patent US6737383B1, “Herbicidal oxadiazolidines” (priority 1999, dated 2004)

How the values were obtained:
pigweed = assay: Test B pre/postemergence pigweed; format: in vivo, Amaranthus retroflexus
Summary of the method: (§1)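 Response is a visual 0-to-10 score relative to untreated plants, where 0 means no effect and 10 means complete control, taken twelve to sixteen days after application. Treatments went onto soil at planting and onto foliage of 1- to 4-leaf plants, using a surfactant-containing non-phytotoxic solvent.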

blackgrass = assay: Test B pre/postemergence blackgrass; format: in vivo, Alopecurus myosuroides
Summary of the method: as §1

wild oat = assay: Test B pre/postemergence wild oat; format: in vivo, Avena fatua
Summary of the method: as §1

rape = assay: Test B pre/postemergence rape; format: in vivo, Brassica napus
Summary of the method: as §1

corn = assay: Test B pre/postemergence corn; format: in vivo, Zea mays
Summary of the method: as §1

velvetleaf = assay: Test B pre/postemergence velvetleaf; format: in vivo, Abutilon theophrasti
Summary of the method: as §1

smallflower flatsedge = assay: Test B flood test smallflower flatsedge; format: in vivo, Cyperus difformis
Summary of the method: (§2)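 Read-out is a visual response score from 0 (no effect) to 10 (complete control), assigned by comparison with untreated controls. Treatment was applied at the 2-leaf stage, and plants stayed in the greenhouse for twelve to sixteen days before scoring.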

surinam grass = assay: Test B pre/postemergence surinam grass; format: in vivo, Brachiaria decumbens
Summary of the method: as §1

purple nutsedge = assay: Test B pre/postemergence purple nutsedge; format: in vivo, Cyperus rotundus
Summary of the method: as §1

cocklebur = assay: Test B pre/postemergence cocklebur; format: in vivo, Xanthium strumarium
Summary of the method: as §1

bamyardgrass = assay: Test B flood test barnyardgrass; format: in vivo, Echinochloa crus-galli
Summary of the method: as §2

sugar beet = assay: Test B pre/postemergence sugar beet; format: in vivo, Beta vulgaris
Summary of the method: as §1

wheat = assay: Test B pre/postemergence wheat; format: in vivo, Triticum aestivum
Summary of the method: as §1

crabgrass = assay: Test B pre/postemergence crabgrass; format: in vivo, Digitaria sanguinalis
Summary of the method: as §1

bedstraw = assay: Test B pre/postemergence bedstraw; format: in vivo, Galium aparine; conditions: Postemergence
Summary of the method: as §1

soybean = assay: Test B pre/postemergence soybean; format: in vivo, Glycine max
Summary of the method: as §1

[1] = Postemergence, Rate 250 g/ha, scale 0 to 10
[2] = Postemergence, Rate 500 g/ha, scale of 0 to 10 where 0 is no effect and 10 is complete control
[3] = Preemergence, Rate 62 g/ha, scale of 0 to 10 where 0 is no effect and 10 is complete control
[4] = Preemergence, Rate 125 g/ha, scale of 0 to 10 where 0 is no effect and 10 is complete control
[5] = Preemergence, Rate 250 g/ha, scale 0 to 10, 0 is no effect, 10 is complete control
[6] = Preemergence, Rate 500 g/ha, scale 0 to 10, 0 is no effect, 10 is complete control
[7] = Rate 62 g/ha, Postemergence, scale 0 to 10, 0 no effect, 10 complete control
[8] = Rate 125 g/ha, Postemergence, scale 0 to 10, 0 is no effect, 10 is complete control
[9] = Rate 62 g/ha, flood test species, Pre-emergence, visual evaluation after twelve to sixteen days
[10] = Rate 125 g/ha, under heading Pre-emergence, flood test species, visual evaluation after twelve to sixteen days
[11] = Rate 250 g/ha, Pre-emergence (flood test species), scale 0 to 10, 0 is no effect, 10 is complete control
[12] = Rate 500 g/ha, Pre-emergence, flood test species, scale 0 to 10 (0 no effect, 10 complete control)

CC(C)N(C(=O)n1oc(=O)n(CCl)c1=O)c1ccc(F)cc1F [Compound 437]
Redroot pigweed plant response rating (pigweed; [1]): 0 | Redroot pigweed plant response rating (pigweed; [2]): 0 | Plant response rating, Redroot pigweed (pigweed; [3]): 0 | Plant response rating, Redroot pigweed (pigweed; [4]): 0 | Redroot pigweed plant response rating (pigweed; [5]): 0 | Redroot pigweed plant response rating (pigweed; [6]): 0 | Redroot pigweed plant response rating (pigweed; [7]): 0 | Redroot pigweed plant response rating (pigweed; [8]): 0 | Blackgrass plant response rating (blackgrass; [1]): 0 | Blackgrass plant response rating (blackgrass; [2]): 0 | Plant response rating, Blackgrass (blackgrass; [3]): 0 | Plant response rating, Blackgrass (blackgrass; [4]): 0 | Blackgrass plant response rating (blackgrass; [5]): 0 | Blackgrass plant response rating (blackgrass; [6]): 0 | Blackgrass plant response rating (blackgrass; [7]): 0 | Blackgrass plant response rating (blackgrass; [8]): 0 | Wild oats plant response rating (wild oat; [1]): 0 | Wild oats plant response rating (wild oat; [2]): 3 | Plant response rating, Wild oats (wild oat; [3]): 0 | Plant response rating, Wild oats (wild oat; [4]): 0 | Wild oats plant response rating (wild oat; [5]): 0 | Wild oats plant response rating (wild oat; [6]): 0 | Wild oats plant response rating (wild oat; [7]): 0 | Wild oats plant response rating (wild oat; [8]): 0 | Rape plant response rating (rape; [1]): 0 | Rape plant response rating (rape; [2]): 0 | Plant response rating, Rape (rape; [3]): 0 | Plant response rating, Rape (rape; [4]): 0 | Rape plant response rating (rape; [5]): 0 | Rape plant response rating (rape; [6]): 0 | Rape plant response rating (rape; [7]): 0 | Rape plant response rating (rape; [8]): 0 | Corn plant response rating (corn; [1]): 0 | Corn plant response rating (corn; [2]): 0 | Plant response rating, Corn (corn; [3]): 0 | Plant response rating, Corn (corn; [4]): 0 | Corn plant response rating (corn; [5]): 0 | Corn plant response rating (corn; [6]): 0 | Corn plant response rating (corn; [7]): 0 | Corn plant response rating (corn; [8]): 0 | Velvetleaf plant response rating (velvetleaf; [1]): 0 | Velvetleaf plant response rating (velvetleaf; [2]): 0 | Plant response rating, Velvetleaf (velvetleaf; [3]): 0 | Plant response rating, Velvetleaf (velvetleaf; [4]): 0 | Velvetleaf plant response rating (velvetleaf; [5]): 0 | Velvetleaf plant response rating (velvetleaf; [6]): 0 | Velvetleaf plant response rating (velvetleaf; [7]): 0 | Velvetleaf plant response rating (velvetleaf; [8]): 0 | Plant response rating, S. Flatsedge (0 to 10 scale, 0 is no effect, 10 is complete control) (smallflower flatsedge; [9]): 0 | S. Flatsedge plant response rating (0 to 10 scale, 0 is no effect, 10 is complete control) (smallflower flatsedge; [10]): 0 | S. Flatsedge plant response rating (smallflower flatsedge; [11]): 0 | S. Flatsedge plant response rating (smallflower flatsedge; [12]): 0 | B. signalgrass plant response rating (surinam grass; Postemergence, Rate 250 g/ha, scale 0 to 10, 0 no effect, 10 complete control): 0 | B. signalgrass plant response rating (surinam grass; [2]): 0 | Plant response rating, B. signalgrass (surinam grass; [3]): 0 | Plant response rating, B. signalgrass (surinam grass; [4]): 0 | B. signalgrass plant response rating (surinam grass; [5]): 0 | B. signalgrass plant response rating (surinam grass; [6]): 0 | B. signalgrass plant response rating (surinam grass; [7]): 0 | B. signalgrass plant response rating (surinam grass; [8]): 0 | Nutsedge plant response rating (purple nutsedge; [1]): 0 | Nutsedge plant response rating (purple nutsedge; [2]): 0 | Plant response rating, Nutsedge (purple nutsedge; [3]): 0 | Plant response rating, Nutsedge (purple nutsedge; [4]): 0 | Nutsedge plant response rating (purple nutsedge; [5]): 0 | Nutsedge plant response rating (purple nutsedge; [6]): 0 | Nutsedge plant response rating (purple nutsedge; [7]): 0 | Nutsedge plant response rating (purple nutsedge; [8]): 0 | Cocklebur plant response rating (cocklebur; [1]): 0 | Cocklebur plant response rating (cocklebur; [2]): 1 | Plant response rating, Cocklebur (cocklebur; [3]): 0 | Plant response rating, Cocklebur (cocklebur; [4]): 0 | Cocklebur plant response rating (cocklebur; [5]): 0 | Cocklebur plant response rating (cocklebur; [6]): 0 | Cocklebur plant response rating (cocklebur; [7]): 0 | Cocklebur plant response rating (cocklebur; [8]): 0 | Plant response rating, Barnyardgrass (0 to 10 scale, 0 is no effect, 10 is complete control) (bamyardgrass; [9]): 0 | Barnyardgrass plant response rating (0 to 10 scale, 0 is no effect, 10 is complete control) (bamyardgrass; [10]): 0 | Barnyardgrass plant response rating (bamyardgrass; [11]): 0 | Barnyardgrass plant response rating (bamyardgrass; [12]): 0 | Sugarbeets plant response rating (sugar beet; [1]): 0 | Sugarbeets plant response rating (sugar beet; [2]): 0 | Plant response rating, Sugarbeets (sugar beet; [3]): 0 | Plant response rating, Sugarbeets (sugar beet; [4]): 0 | Sugarbeets plant response rating (sugar beet; [5]): 0 | Sugarbeets plant response rating (sugar beet; [6]): 0 | Sugarbeets plant response rating (sugar beet; [7]): 0 | Sugarbeets plant response rating (sugar beet; [8]): 0 | Wheat plant response rating (wheat; [1]): 0 | Wheat plant response rating (wheat; [2]): 0 | Plant response rating, Wheat (wheat; [3]): 0 | Plant response rating, Wheat (wheat; [4]): 0 | Wheat plant response rating (wheat; [5]): 0 | Wheat plant response rating (wheat; [6]): 0 | Wheat plant response rating (wheat; [7]): 0 | Wheat plant response rating (wheat; [8]): 0 | Crabgrass plant response rating (crabgrass; [1]): 1 | Crabgrass plant response rating (crabgrass; [2]): 3 | Plant response rating, Crabgrass (crabgrass; [3]): 0 | Plant response rating, Crabgrass (crabgrass; [4]): 0 | Crabgrass plant response rating (crabgrass; [5]): 0 | Crabgrass plant response rating (crabgrass; [6]): 2 | Crabgrass plant response rating (crabgrass; [7]): 0 | Crabgrass plant response rating (crabgrass; [8]): 1 | Bedstraw plant response rating (bedstraw; Rate 250 g/ha, scale 0 to 10): 0 | Bedstraw plant response rating (bedstraw; Rate 62 g/ha, scale 0 to 10, 0 no effect, 10 complete control): 0 | Bedstraw plant response rating (bedstraw; Rate 125 g/ha, scale 0 to 10, 0 is no effect, 10 is complete control): 0 | Soybean plant response rating (soybean; [1]): 0 | Soybean plant response rating (soybean; [2]): 2 | Plant response rating, Soybean (soybean; [3]): 0 | Plant response rating, Soybean (soybean; [4]): 0 | Soybean plant response rating (soybean; [5]): 0 | Soybean plant response rating (soybean; [6]): 0 | Soybean plant response rating (soybean; [7]): 0 | Soybean plant response rating (soybean; [8]): 0
